This series can be described thus: In vitro aerosolization performance of MDI formulations (Next Generation Impactor, HPLC). The settings on record: for FPFED (%) fine particle fraction of the emitted dose / Fine particle Dose (μg ± S.D.) / MMAD ± GSD / Emitted Dose (μg ± S.D.): NGI at 30 L.min^−1; for MMAD ± GSD: in µm (unit assumed); for Emitted Dose (μg ± S.D.): nominal dose salmeterol xinafoate 25 μg, fluticasone propionate 125 μg. In kind it is physicochemical. As to the method: The nominal dose of salmeterol xinafoate was 25 μg and the nominal dose of fluticasone propionate was 125 μg.
A 100 mm×4.6 mm Ascentis Express […] column with a 2.7 μm particle size was used for the analysis.

[1] abbreviates: combination MDI formulation in HFA-134a.
The mark [2] stands for this setting: combination MDI formulation in HFA-152a.

As for `CCC(=O)O[C@]1(C(=O)SCF)[C@H](C)C[C@H]2[C@@H]3C[C@H](F)C4=CC(=O)C=C[C@]4(C)[C@@]3(F)[C@@H](O)C[C@@]21C` [Fluticasone Propionate, fluticasone propionate], under “HFA-152a used as the propellant, versus HFA-134a (Tables 2 and 3)”, the “fine particle fractions of the emitted doses upon aerosolization, HFA-152a compared with HFA-134a” value is recorded as “significantly better”. In addition, under setting [1], the “FPFED (%) fine particle fraction of the emitted dose” value is 31.0%, the “Fine particle Dose (μg ± S.D.)” value is 31.6 ± 3.3 µg, the “MMAD ± GSD” value amounted to 3.8 ± 2.5 and the “Emitted Dose (μg ± S.D.)” value was 101.7 ± 8.7 µg. Also, under setting [2], the “FPFED (%) fine particle fraction of the emitted dose” value is reported as 40.0%, the “Fine particle Dose (μg ± S.D.)” value was found to be 43.5 ± 3.4 µg, the “MMAD ± GSD” value is 2.9 ± 2.1 and the “Emitted Dose (μg ± S.D.)” value amounted to 108.7 ± 1.1 µg.
